Source: ChEMBL document CHEMBL1201862, “PubChem BioAssay data set” (2004)
Activity calls are given as the source filed them.

Experiments:
[1] = molecular target: T1, Neuropeptide Y receptor type 1 (Homo sapiens, UniProt P25929); type: functional;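 also: HEK293 cells with a CNG channel challenged with NPY then isoproterenol; potency as antagonist that reverses NPY suppression of cAMP signal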
T1 sequence (P25929 whole entry): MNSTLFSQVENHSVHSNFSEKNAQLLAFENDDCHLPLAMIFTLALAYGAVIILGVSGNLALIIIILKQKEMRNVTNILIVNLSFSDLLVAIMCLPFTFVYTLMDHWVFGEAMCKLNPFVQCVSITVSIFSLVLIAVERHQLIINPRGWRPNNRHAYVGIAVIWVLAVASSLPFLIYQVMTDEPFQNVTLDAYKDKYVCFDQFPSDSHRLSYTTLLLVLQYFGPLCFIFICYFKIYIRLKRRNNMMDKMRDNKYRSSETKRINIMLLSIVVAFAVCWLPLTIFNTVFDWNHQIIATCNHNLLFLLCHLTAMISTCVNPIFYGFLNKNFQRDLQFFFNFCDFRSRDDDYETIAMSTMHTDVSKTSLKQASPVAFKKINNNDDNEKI

[2] = molecular target: T2, Neuropeptide Y receptor type 2 (Homo sapiens, UniProt P49146); type: functional, cell-based;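 also: HEK293 cells expressing the receptor and a CNG channel; stimulus was NPY near EC95 followed by isoproterenol to raise cAMP; antagonist potency measured as restoring cAMP signal that NPY suppresses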
T2 sequence (P49146 whole entry): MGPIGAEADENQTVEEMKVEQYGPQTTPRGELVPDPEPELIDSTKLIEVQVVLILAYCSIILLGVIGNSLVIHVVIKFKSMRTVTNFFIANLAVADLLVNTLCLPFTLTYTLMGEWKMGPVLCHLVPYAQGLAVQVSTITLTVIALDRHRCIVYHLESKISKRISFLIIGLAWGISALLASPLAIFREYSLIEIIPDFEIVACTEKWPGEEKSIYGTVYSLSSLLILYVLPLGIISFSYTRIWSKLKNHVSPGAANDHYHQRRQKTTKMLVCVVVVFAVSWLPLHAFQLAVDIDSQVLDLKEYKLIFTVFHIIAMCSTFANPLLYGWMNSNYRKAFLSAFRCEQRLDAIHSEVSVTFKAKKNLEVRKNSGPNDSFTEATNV

Hexokinase = molecular target: T3, Hexokinase (Trypanosoma brucei, UniProt Q38C41); test: Confirmation assay for inhibitors of Trypanosoma brucei hexokinase 1-Analogue-first series. [Related pubchem assays (depositor defined):AID1430, AID1632, AID2516, AID2560, AID2579, AID2600, AID449725, AID492951]; type: functional
T3 sequence (Q38C41 whole entry): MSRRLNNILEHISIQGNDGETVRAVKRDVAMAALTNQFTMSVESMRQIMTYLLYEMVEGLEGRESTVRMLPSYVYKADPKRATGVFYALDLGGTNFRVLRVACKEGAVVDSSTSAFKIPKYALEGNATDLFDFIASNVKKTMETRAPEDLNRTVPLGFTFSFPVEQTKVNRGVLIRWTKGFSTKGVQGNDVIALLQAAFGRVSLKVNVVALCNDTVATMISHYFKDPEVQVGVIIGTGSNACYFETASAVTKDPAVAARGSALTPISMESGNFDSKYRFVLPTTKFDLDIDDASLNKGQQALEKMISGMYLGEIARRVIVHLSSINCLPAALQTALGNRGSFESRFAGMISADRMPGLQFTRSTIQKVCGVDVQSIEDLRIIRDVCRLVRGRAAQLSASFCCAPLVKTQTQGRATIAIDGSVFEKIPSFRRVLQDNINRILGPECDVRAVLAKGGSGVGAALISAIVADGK

[3] = molecular target: DNA dC->dU-editing enzyme APOBEC-3A (Homo sapiens, UniProt P31941); test: Dose Response confirmation of small molecule APOBEC3A DNA Deaminase Inhibitors via a fluorescence-based single-stranded DNA deaminase assay. [Related pubchem assays (depositor defined):AID493011, AID493024]; type: functional
[4] = molecular target: DNA dC->dU-editing enzyme APOBEC-3G (Homo sapiens, UniProt Q9HC16); type: functional;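 also: Dose-response counterscreen measuring inhibition of APOBEC3G DNA deaminase activity, run while confirming APOBEC3A inhibitors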
[5] = molecular target: Peroxisome proliferator-activated receptor gamma/Nuclear receptor coactivator 2 (Homo sapiens, UniProt P37231); type: functional;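 also: agonist potency for raising coactivator recruitment to the receptor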
[6] = molecular target: Peroxisome proliferator-activated receptor gamma/Nuclear receptor coactivator 1 (Homo sapiens, UniProt P37231); type: functional;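 also: agonist potency as compounds enhance coactivator SRC-1 recruitment to PPARgamma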
Chain of Peroxisome proliferator-activated receptor gamma/Nuclear receptor coactivator 1 (P37231 whole entry): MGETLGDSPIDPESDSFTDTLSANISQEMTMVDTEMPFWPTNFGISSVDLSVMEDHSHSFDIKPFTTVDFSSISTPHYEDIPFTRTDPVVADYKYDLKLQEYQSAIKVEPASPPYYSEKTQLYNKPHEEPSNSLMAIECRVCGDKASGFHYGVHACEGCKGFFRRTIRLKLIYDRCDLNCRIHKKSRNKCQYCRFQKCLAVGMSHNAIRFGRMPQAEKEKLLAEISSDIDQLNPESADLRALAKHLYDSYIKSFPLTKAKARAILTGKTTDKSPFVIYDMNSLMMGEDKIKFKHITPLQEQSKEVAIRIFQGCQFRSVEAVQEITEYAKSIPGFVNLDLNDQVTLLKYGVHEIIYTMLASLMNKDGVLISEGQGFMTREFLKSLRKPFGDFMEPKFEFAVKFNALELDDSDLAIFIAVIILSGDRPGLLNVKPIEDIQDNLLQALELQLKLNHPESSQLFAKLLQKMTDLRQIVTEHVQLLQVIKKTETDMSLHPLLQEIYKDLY
Chain of Peroxisome proliferator-activated receptor gamma/Nuclear receptor coactivator 1 (Q15788 whole entry, further chain): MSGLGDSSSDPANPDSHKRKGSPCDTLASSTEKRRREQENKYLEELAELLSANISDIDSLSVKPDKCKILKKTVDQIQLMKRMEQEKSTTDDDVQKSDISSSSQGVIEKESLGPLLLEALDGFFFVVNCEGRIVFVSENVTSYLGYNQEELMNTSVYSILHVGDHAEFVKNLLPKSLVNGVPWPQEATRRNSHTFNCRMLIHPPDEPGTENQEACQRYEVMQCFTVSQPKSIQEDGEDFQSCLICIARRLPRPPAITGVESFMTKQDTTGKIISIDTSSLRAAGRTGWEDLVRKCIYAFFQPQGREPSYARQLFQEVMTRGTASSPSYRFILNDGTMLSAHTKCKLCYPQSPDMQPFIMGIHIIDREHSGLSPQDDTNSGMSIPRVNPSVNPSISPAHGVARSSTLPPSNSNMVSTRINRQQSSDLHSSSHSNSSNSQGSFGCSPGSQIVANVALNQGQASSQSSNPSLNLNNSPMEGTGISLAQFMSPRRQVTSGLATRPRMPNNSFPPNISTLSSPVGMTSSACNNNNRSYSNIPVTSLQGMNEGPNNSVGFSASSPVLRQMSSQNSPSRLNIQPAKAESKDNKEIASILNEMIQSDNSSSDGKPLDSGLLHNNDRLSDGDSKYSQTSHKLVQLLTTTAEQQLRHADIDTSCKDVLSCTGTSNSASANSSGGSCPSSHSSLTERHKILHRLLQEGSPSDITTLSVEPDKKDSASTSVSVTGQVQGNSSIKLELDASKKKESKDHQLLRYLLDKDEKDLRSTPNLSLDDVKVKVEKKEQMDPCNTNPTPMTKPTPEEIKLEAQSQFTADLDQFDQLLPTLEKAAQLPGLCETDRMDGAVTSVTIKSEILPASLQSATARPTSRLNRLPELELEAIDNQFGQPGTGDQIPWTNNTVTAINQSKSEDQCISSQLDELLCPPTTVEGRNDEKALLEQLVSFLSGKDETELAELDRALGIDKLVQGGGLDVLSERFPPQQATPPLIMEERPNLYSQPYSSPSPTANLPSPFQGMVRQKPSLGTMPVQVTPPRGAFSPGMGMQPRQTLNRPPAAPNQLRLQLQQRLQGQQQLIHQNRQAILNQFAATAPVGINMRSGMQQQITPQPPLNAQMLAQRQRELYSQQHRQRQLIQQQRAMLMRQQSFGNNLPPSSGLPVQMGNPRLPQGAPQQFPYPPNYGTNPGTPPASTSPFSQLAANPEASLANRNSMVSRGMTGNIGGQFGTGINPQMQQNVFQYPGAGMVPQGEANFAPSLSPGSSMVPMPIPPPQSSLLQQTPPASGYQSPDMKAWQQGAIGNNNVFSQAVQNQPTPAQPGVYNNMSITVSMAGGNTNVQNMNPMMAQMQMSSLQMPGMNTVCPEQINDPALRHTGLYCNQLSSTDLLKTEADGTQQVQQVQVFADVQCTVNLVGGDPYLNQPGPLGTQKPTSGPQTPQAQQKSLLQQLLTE

[7] = molecular target: Peroxisome proliferator-activated receptor gamma/Nuclear receptor coactivator 3 (Homo sapiens, UniProt P37231); type: functional;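 also: agonist potency for raising coactivator recruitment to the receptor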
Chain of Peroxisome proliferator-activated receptor gamma/Nuclear receptor coactivator 3 (P37231 whole entry): as the sequence (P37231 whole entry) above
Chain of Peroxisome proliferator-activated receptor gamma/Nuclear receptor coactivator 3 (Q9Y6Q9 whole entry, further chain): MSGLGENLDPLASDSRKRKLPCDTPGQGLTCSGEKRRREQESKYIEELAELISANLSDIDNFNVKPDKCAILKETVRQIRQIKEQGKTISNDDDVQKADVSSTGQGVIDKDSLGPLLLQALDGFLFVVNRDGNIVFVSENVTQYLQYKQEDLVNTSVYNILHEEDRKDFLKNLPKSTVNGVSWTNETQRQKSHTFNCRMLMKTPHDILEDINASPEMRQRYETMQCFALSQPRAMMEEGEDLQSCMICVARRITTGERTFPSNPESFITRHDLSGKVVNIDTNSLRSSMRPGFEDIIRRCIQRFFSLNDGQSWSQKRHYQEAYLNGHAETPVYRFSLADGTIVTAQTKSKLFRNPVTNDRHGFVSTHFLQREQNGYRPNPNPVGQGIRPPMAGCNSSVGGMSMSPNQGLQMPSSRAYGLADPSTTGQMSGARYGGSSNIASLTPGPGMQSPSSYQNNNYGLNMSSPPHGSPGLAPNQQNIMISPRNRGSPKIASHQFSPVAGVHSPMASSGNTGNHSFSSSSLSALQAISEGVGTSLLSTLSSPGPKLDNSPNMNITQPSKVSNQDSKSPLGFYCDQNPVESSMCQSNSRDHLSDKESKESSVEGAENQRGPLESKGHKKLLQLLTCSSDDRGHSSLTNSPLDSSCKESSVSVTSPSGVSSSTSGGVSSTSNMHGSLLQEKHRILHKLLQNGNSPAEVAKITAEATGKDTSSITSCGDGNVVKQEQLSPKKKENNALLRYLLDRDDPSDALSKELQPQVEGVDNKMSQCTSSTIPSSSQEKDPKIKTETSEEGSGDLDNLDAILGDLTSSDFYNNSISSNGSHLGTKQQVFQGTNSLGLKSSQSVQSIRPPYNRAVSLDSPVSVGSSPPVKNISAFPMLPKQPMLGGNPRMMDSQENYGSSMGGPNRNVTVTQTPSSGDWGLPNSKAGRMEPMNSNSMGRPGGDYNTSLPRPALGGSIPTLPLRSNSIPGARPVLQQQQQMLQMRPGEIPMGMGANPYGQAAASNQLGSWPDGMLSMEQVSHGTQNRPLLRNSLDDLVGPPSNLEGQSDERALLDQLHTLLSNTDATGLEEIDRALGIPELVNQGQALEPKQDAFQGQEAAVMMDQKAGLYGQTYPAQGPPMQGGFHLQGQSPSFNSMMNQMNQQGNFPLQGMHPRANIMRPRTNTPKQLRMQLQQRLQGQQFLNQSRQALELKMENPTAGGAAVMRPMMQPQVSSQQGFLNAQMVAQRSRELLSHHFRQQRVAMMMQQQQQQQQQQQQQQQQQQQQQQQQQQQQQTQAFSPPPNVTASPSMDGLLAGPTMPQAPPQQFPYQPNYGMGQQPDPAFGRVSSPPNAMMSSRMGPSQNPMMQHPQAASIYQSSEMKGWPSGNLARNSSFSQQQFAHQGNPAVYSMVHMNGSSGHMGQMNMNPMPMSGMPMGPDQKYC

Vero = test: mammalian cell viability reduction – secondary assay, cytotoxicity control for West Nile virus antiviral project, dose response (AID 1650); type: functional, Chlorocebus sabaeus; conditions: Chlorocebus sabaeus, Vero
Cytochrome P450 3A4 = Cytochrome P450 3A4 (Homo sapiens, UniProt P08684);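 also: CYP3A4 tested as one member of a cytochrome P450 panel screen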
[8] = THP-1 cell cytotoxicity, dose response, cytotoxicity control for non-replicating M. tuberculosis project (AID 489025); type: functional
[9] = HepG2 cell cytotoxicity, dose response, cytotoxicity control for non-replicating M. tuberculosis project (AID 489018); type: functional; conditions: Mycobacterium tuberculosis
[10] = Vero E6 cell cytotoxicity, dose response, cytotoxicity control for non-replicating M. tuberculosis project, secondary assay (AID 492998); type: functional, VeroE6; conditions: Vero C1008
cells = type: functional
[11] = molecular target: T4, Tyrosine-protein phosphatase non-receptor type 7 (Homo sapiens, UniProt P35236); type: functional
T4 sequence (P35236 whole entry): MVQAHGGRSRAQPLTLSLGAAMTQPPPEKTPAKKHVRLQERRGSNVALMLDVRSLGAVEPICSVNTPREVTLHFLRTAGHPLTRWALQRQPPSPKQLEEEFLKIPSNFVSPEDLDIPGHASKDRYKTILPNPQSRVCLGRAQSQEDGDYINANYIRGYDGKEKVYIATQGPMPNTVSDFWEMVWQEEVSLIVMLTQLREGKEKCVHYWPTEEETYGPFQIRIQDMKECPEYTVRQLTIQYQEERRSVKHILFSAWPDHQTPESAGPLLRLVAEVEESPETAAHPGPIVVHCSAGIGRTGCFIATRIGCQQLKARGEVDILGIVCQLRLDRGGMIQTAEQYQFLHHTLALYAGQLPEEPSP

[12] = molecular target: Glyceraldehyde-3-phosphate dehydrogenase (Homo sapiens, UniProt P04406)
Chain of Glyceraldehyde-3-phosphate dehydrogenase (P04406 whole entry): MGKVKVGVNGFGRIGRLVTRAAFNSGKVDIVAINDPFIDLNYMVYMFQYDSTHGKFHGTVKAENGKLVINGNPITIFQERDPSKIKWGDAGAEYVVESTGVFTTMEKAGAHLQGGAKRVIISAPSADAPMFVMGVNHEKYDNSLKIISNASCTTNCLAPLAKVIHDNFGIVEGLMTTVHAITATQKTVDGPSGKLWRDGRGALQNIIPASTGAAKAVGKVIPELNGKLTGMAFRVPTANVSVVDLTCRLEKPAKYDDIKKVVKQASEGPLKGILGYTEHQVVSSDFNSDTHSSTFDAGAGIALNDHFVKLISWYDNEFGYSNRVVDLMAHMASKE

[13] = molecular target: T5, Dual specificity protein phosphatase 6 (Rattus norvegicus, UniProt Q64346)
T5 sequence (Q64346 whole entry): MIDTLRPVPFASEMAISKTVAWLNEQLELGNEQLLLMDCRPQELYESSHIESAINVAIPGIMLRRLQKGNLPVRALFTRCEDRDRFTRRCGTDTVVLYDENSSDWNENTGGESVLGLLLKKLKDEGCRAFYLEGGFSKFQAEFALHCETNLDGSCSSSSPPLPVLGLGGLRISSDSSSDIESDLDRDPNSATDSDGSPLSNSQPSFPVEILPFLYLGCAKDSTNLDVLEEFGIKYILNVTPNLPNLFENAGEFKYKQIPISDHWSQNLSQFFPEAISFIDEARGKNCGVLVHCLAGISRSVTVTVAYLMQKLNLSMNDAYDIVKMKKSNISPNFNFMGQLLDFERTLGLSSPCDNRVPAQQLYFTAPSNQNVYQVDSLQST

[14] = molecular target: T5, Dual specificity protein phosphatase 6; type: functional
[15] = molecular target: T6, Corticotropin-releasing factor receptor 2/Corticotropin-releasing factor-binding protein (Homo sapiens, UniProt P24387+Q13324); test: Dose Response confirmation of uHTS hits for small molecule antagonists of the CRF-binding protein and CRF-R2 receptor complex.; type: functional; conditions: read-out: IC50_Mean
T6 sequence (Q13324 whole entry): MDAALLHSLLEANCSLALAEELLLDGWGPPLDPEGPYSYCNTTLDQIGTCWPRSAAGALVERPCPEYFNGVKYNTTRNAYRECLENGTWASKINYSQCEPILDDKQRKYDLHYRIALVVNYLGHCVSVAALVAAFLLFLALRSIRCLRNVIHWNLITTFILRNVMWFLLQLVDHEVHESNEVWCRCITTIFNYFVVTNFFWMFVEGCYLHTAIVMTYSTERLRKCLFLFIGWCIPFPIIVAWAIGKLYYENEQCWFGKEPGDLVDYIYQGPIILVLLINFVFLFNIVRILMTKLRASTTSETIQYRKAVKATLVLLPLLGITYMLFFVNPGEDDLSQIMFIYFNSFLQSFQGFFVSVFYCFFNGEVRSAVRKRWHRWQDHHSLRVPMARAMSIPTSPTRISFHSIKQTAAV
T6 sequence (P24387 whole entry): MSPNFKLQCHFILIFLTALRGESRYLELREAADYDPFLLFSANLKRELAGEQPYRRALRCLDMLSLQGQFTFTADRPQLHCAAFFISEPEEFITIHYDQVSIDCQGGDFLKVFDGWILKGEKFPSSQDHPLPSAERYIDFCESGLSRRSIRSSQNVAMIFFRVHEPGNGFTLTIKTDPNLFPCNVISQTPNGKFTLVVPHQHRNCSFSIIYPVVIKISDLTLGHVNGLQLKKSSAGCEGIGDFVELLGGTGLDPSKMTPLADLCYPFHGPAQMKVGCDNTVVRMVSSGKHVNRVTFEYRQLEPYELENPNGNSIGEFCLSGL

[16] = molecular target: T6, Corticotropin-releasing factor receptor 2/Corticotropin-releasing factor-binding protein; test: activators of CRF receptor 2 with binding protein – uHTS hits, confirmation (AID 602473); type: functional; conditions: read-out: EC50_Mean
Large T antigen = Large T antigen (Simian virus 40, UniProt P03070); type: functional, Betapolyomavirus macacae;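 also: Confirmatory-stage PubChem screen for compounds that inhibit SV40 T antigen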
Chain of Large T antigen (P03070 whole entry): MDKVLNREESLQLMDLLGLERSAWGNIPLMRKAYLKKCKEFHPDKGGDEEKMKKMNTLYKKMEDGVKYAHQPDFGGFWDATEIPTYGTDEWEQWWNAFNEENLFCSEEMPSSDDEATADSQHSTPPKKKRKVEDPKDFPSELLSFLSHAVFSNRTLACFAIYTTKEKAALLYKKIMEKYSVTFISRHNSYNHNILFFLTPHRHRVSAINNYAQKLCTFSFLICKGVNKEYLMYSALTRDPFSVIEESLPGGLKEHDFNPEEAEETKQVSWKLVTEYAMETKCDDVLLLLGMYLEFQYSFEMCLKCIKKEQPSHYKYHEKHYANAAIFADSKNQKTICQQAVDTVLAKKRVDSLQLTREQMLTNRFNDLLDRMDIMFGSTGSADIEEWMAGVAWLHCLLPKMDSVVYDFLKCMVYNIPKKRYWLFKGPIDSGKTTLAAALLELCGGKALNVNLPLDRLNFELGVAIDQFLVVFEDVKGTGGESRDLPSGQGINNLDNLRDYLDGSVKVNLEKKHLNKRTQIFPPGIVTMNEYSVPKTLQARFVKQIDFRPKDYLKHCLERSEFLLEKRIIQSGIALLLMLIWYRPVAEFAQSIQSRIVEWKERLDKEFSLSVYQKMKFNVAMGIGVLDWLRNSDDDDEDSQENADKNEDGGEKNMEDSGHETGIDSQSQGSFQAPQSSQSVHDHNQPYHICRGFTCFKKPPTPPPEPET

[17] = viability of PTEN-deleted HCT116 cells – cell-based, HCT116 PTEN knockout, dose response (AID 1047); type: functional;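 also: HCT116 colon tumor cells with PTEN knocked out; cells exposed to compound for 60 hours before readout; potency for loss of cell viability measured by luminescence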
[18] = viability of HCT116 lacking mutant beta-catenin – cell-based, human colon tumor, dose response (AID 1045); type: functional;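 also: HCT116 colon tumor cells with beta catenin knocked out; cells exposed to compound for 60 hours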
[19] = Luminescence Cell-Based Dose Retest to Confirm Inhibitors of Cancer Stem Cells. [Related pubchem assays (depositor defined):AID2717, AID2721]; type: functional, Homo sapiens; conditions: Homo sapiens
INS1 = test: INS-1E survival protection against cytokine death – cell-based, luminescence, retest, dose response (AID 449756); type: functional; conditions: Rattus norvegicus;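 also: cell death triggered by IL-1 beta plus TNF-alpha plus IFN-gamma mixture; protective hits raise ATP signal compared with cytokine alone wells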
[20] = molecular target: T7, Alkaline phosphatase, tissue-nonspecific isozyme (Homo sapiens, UniProt P05186); test: potency against alkaline phosphatase TNAP – biochemical, luminescent, dose response, SAR follow-up (AID 1056)
T7 sequence (P05186 whole entry): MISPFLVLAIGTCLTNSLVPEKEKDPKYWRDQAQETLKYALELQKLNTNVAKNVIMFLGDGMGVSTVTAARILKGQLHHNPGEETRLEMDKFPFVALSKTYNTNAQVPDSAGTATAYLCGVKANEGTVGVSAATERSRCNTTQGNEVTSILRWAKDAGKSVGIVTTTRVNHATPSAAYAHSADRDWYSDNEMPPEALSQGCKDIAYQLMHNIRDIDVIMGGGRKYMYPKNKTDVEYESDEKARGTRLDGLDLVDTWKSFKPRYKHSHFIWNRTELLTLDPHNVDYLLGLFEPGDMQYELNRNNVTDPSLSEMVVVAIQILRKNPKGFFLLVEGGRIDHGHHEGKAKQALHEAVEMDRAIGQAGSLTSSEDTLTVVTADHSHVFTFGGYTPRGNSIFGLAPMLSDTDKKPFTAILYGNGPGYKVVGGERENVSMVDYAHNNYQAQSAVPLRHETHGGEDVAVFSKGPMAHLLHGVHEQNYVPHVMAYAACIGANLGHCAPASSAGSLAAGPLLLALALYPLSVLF

O=C(CSCc1ccc(Cl)cc1)N/N=C/c1c(Cl)cccc1Cl
IC50 [1]: 8.3 µM (active) | IC50 [2]: 6.47 µM (active)

CC(C)(C)c1ccc(C(=O)Nc2cc(Cl)ccc2C(=O)O)cc1
IC50 (Hexokinase): 2.12 µM (active)

C[N+]1(CC(O)COc2ccccc2)CCN(C(=O)c2ccc([N+](=O)[O-])cc2)CC1 (centres undefined)
IC50 [3]: 2.82 µM (active) | IC50 [4]: 3.44 µM (active)

Cc1nc(SCC(=O)c2ccc(Cl)s2)c2oc3ccccc3c2n1
EC50 [5]: > 79.4 µM (not active) | EC50 [6]: > 79.4 µM (not active) | EC50 [7]: > 79.4 µM (not active) | CC50 (Vero): 23.6 µM (active) | AC50 (Cytochrome P450 3A4): 2.82 µM (inconclusive)

O=C(O)c1ccc(Cl)cc1NC(=O)C1CCOCC1
IC50 (Hexokinase): > 25 µM (inactive)

COc1ccccc1C(=O)Nc1cccc(-c2cn3ccsc3n2)c1
EC50 [5]: > 79.4 µM (not active) | EC50 [6]: > 79.4 µM (not active) | EC50 [7]: > 79.4 µM (not active)

CCc1ccc2c(c1)Sc1ccccc1CC2N1CCN(C)CC1 (centres undefined)
CC50 [8]: 15.8 µM (active) | CC50 [9]: > 20 µM (active) | CC50 [10]: > 20 µM (active) | IC50 (cells): 14.1 µM (active)

CCn1c(=O)n(Cc2ccc([N+](=O)[O-])cc2)c(=O)n([C@@H](Cc2ccccc2)C(=O)O)c1=O
IC50 [11]: > 100 µM (not active) | IC50 [12]: > 100 µM (not active) | IC50 [13]: > 100 µM (inactive) | IC50 [14]: > 100 µM (inactive)

Nc1c2c(nc3sc4c(c13)CCCC4)CCCCCC2
IC50 [1]: 26.7 µM (not active) | IC50 [2]: > 35 µM (not active)

C/C(=N\OC(=O)c1ccc(OC(C)C)cc1)c1ccc(C)c(C)c1
IC50 [1]: 7.08 µM (active) | IC50 [2]: 7.94 µM (active) | IC50 [15]: > 47.1 µM (inactive) | EC50 [16]: > 53 µM (inactive)

COc1ccc(C(=O)Nc2cc(Cl)ccc2C(=O)O)cn1
IC50 (Hexokinase): > 25 µM (inactive)

COc1cc(SC#N)ccc1/N=C/c1c(C)[nH]n(-c2ccc(C)cc2)c1=O
EC50 [5]: > 79.4 µM (not active) | EC50 [6]: > 79.4 µM (not active) | EC50 [7]: > 79.4 µM (not active) | IC50 (Large T antigen): 21.2 µM (active) | EC50 [17]: 56.6 µM (active) | EC50 [18]: 107 µM (active) | AC50 [19]: 2.9 µM (active) | AC50 (INS1): 3.6 µM (active)

O=S(=O)(Nc1cnc2ccccc2c1)c1cc(Cl)ccc1Cl
IC50 [12]: > 100 µM (not active) | IC50 [20]: 49.6 µM (active)
